We go through four molecules from US8802597B2, “Herbicidal pyrimidines” (E I du Pont de Nemours and Company, priority 2003, dated 2014).

Holding throughout (test): Test C pre/postemergence
Common to all, as to format: in vivo

The subject of one experiment is soybean (Glycine max). The following applies: for plant injury at 31 g/ha / plant injury at 62 g/ha / plant injury at 125 g/ha / plant injury at 250 g/ha: Glycine max; for plant injury at 31 g/ha: 31 g ai/ha. The method, boiled down:
(§1)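 Visual injury ratings, 0 (no effect) to 100 (complete control), made 12 to 14 days after treatment by comparison with untreated controls. Greenhouse plants received test chemical in a surfactant-containing non-phytotoxic solvent, either preemergence on planted seeds or postemergence at the 1- to 4-leaf stage.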

The test system of experiment [1] is yellow nutsedge (Cyperus esculentus). As to conditions: for pest or weed control at 31 g/ha / pest or weed control at 62 g/ha / pest or weed control at 125 g/ha / pest or weed control at 250 g/ha: Cyperus; for pest or weed control at 31 g/ha: 31 g ai/ha. A digest of the protocol:
as §1

The subject of experiment [2] is crabgrass (Digitaria sanguinalis). As to conditions: for pest or weed control at 31 g/ha / pest or weed control at 62 g/ha / pest or weed control at 125 g/ha / pest or weed control at 250 g/ha: Digitaria sanguinalis; for pest or weed control at 31 g/ha: 31 g ai/ha. A digest of the protocol: as §1
The mark [3] stands for this setting: Postemergence, 62 g ai/ha, scale 0 to 100 (0 no effect, 100 complete control).
[4] abbreviates: Postemergence, 125 g ai/ha, scale 0 to 100 (0 no effect, 100 complete control).
Where [5] appears, read: Postemergence, 250 g ai/ha, scale 0 to 100.
[6] abbreviates: Postemergence, 500 g ai/ha, scale 0 to 100.
[7] abbreviates: Preemergence, 62 g ai/ha, scale 0 to 100, 0 no effect, 100 complete control.
[8] abbreviates: Preemergence, 125 g ai/ha, scale 0 to 100.
Setting [9] is: Preemergence, 250 g ai/ha, scale 0 to 100.
The mark [10] stands for this setting: Preemergence, 500 g ai/ha, scale 0 to 100.

SMILES strings stand for the structures. Like-named read-outs stand apart in the source and are kept apart here.

For the molecule `CCOC(=O)c1nc(C2CC2)nc(N)c1F` [Compound 30], the plant injury at 31 g/ha in the experiment on soybean (Glycine max) (post-emergence, Postemergence, read-out: Plant response rating (scale of 0 to 100), Soybean) was 80%; in the experiment on soybean (Glycine max) (pre-emergence, Preemergence, scale 0 to 100, 0 no effect, 100 complete control, read-out: Plant response rating, Soybean), 0%. The plant injury at 62 g/ha was 90% with soybean (Glycine max) (post-emergence, Postemergence, 62 g ai/ha, scale 0 to 100 (0 no effect, 100 complete control), read-out: Soybean plant response rating) and 5% with soybean (Glycine max) (pre-emergence, Preemergence, 62 g ai/ha, scale 0 to 100, 0 no effect, 100 complete control, read-out: Plant response rating, Soybean). For the same molecule, the plant injury at 125 g/ha worked out at 90% in the experiment with soybean (Glycine max) (post-emergence, Postemergence, 125 g ai/ha, scale 0 to 100 (0 no effect, 100 complete control), read-out: Soybean plant response rating) and 5% in the experiment on soybean (Glycine max) (pre-emergence, Preemergence, 125 g ai/ha, scale 0 to 100, read-out: Plant response rating, Soybean). Moreover, the plant injury at 250 g/ha in the experiment with soybean (Glycine max) (post-emergence, Postemergence, 250 g ai/ha, scale 0 to 100, read-out: Plant response rating, Soybean) turned out to be 95%; in the experiment on soybean (Glycine max) (pre-emergence, Preemergence, 250 g ai/ha, scale 0 to 100, read-out: Plant response rating, Soybean), 70%. Moreover, the pest or weed control at 31 g/ha amounted to 0% in experiment [1] (post-emergence, Postemergence, read-out: Plant response rating (scale of 0 to 100), Nutsedge, Yellow); 0% in experiment [1] (pre-emergence, Preemergence, scale 0 to 100, 0 no effect, 100 complete control, read-out: Plant response rating, Nutsedge, Yellow); 0% in experiment [2] (post-emergence, Postemergence, read-out: Plant response rating (scale of 0 to 100), Crabgrass); 0% in experiment [2] (pre-emergence, Preemergence, scale 0 to 100, 0 no effect, 100 complete control, read-out: Plant response rating, Crabgrass). The pest or weed control at 62 g/ha in experiment [1] (post-emergence, Postemergence, 62 g ai/ha, scale 0 to 100 (0 no effect, 100 complete control), read-out: Nutsedge, Yellow plant response rating) turned out to be 0%; in experiment [1] (pre-emergence, Preemergence, 62 g ai/ha, scale 0 to 100, 0 no effect, 100 complete control, read-out: Plant response rating, Nutsedge, Yellow) it was 0%; in experiment [2] (post-emergence, Postemergence, 62 g ai/ha, scale 0 to 100 (0 no effect, 100 complete control), read-out: Crabgrass plant response rating) it was 0%; in experiment [2] (pre-emergence, Preemergence, 62 g ai/ha, scale 0 to 100, 0 no effect, 100 complete control, read-out: Plant response rating, Crabgrass), 0%. For the same molecule, the pest or weed control at 125 g/ha worked out at 0% in experiment [1] (post-emergence, Postemergence, 125 g ai/ha, scale 0 to 100 (0 no effect, 100 complete control), read-out: Nutsedge, Yellow plant response rating); 0% in experiment [1] (pre-emergence, Preemergence, 125 g ai/ha, scale 0 to 100, read-out: Plant response rating, Nutsedge, Yellow); 5% in experiment [2] (post-emergence, Postemergence, 125 g ai/ha, scale 0 to 100 (0 no effect, 100 complete control), read-out: Crabgrass plant response rating); 70% in experiment [2] (pre-emergence, Preemergence, 125 g ai/ha, scale 0 to 100, read-out: Plant response rating, Crabgrass). Further, the pest or weed control at 250 g/ha turned out to be 5% in experiment [1] (post-emergence, Postemergence, 250 g ai/ha, scale 0 to 100, read-out: Plant response rating, Nutsedge, Yellow); 0% in experiment [1] (pre-emergence, Preemergence, 250 g ai/ha, scale 0 to 100, read-out: Plant response rating, Nutsedge, Yellow); 50% in experiment [2] (post-emergence, Postemergence, 250 g ai/ha, scale 0 to 100, read-out: Plant response rating, Crabgrass); 85% in experiment [2] (pre-emergence, Preemergence, 250 g ai/ha, scale 0 to 100, read-out: Plant response rating, Crabgrass).

Turning to `COC(=O)CNc1nc(C2CC2)nc(C(=O)OC)c1Br` [Compound 10], the “Soybean plant response rating” value in the experiment with soybean (Glycine max) (setting [3]) stood at 70; with soybean (Glycine max) (setting [4]) it was 80. For the same molecule, the figures for the “Plant response rating, Soybean” value in the experiment with soybean (Glycine max) (setting [5]), in the experiment on soybean (Glycine max) (setting [6]) and in the experiment with soybean (Glycine max) (setting [7]) were 90, 100 and 0, respectively. Moreover, the “Nutsedge, Yellow plant response rating” value in experiment [1] (setting [3]) and in experiment [1] (setting [4]) was 0 throughout. Further, the “Plant response rating, Nutsedge, Yellow” value in experiment [1] (setting [5]), in experiment [1] (setting [6]), in experiment [1] (setting [7]) and in experiment [1] (setting [8]) was 0 in each case. Also, the “Crabgrass plant response rating” value in experiment [2] (setting [3]) and in experiment [2] (setting [4]) was 0 throughout. The “Plant response rating, Crabgrass” value in experiment [2] (setting [5]), in experiment [2] (setting [6]), in experiment [2] (setting [7]), in experiment [2] (setting [8]), in experiment [2] (setting [9]) and in experiment [2] (setting [10]) was 0 throughout.

For the molecule `COC(=O)c1nc(C2CC2C)nc(N)c1Br` (stereo not drawn) [Compound 28], the “Soybean plant response rating” value with soybean (Glycine max) (setting [3]) came out at 75; in the experiment with soybean (Glycine max) (setting [4]), 85. The “Plant response rating, Soybean” value stood at 95 in the experiment with soybean (Glycine max) (setting [5]); 95 in the experiment with soybean (Glycine max) (setting [6]); 0 in the experiment with soybean (Glycine max) (setting [7]); 45 in the experiment with soybean (Glycine max) (setting [8]); 65 in the experiment on soybean (Glycine max) (setting [9]); 90 in the experiment with soybean (Glycine max) (setting [10]). Further, the “Nutsedge, Yellow plant response rating” value in experiment [1] (setting [3]) and in experiment [1] (setting [4]) was 0 throughout. In addition, the “Plant response rating, Nutsedge, Yellow” value in experiment [1] (setting [5]), in experiment [1] (setting [6]), in experiment [1] (setting [7]), in experiment [1] (setting [8]), in experiment [1] (setting [9]) and in experiment [1] (setting [10]) was 0 in each case. Further, the “Crabgrass plant response rating” value in experiment [2] (setting [3]) and in experiment [2] (setting [4]) was 0 throughout. Also, the “Plant response rating, Crabgrass” value in experiment [2] (setting [5]) came out at 0; in experiment [2] (setting [6]) it was 20.

`CCOC(=O)Cc1nc(C2CC2)nc(N=CN(C)C)c1Br` [Compound 33]: the “Plant response rating, Soybean” value with soybean (Glycine max) (setting [7]) came out at 0; with soybean (Glycine max) (setting [8]) it was 30; in the experiment with soybean (Glycine max) (setting [9]), 80; in the experiment with soybean (Glycine max) (setting [10]) it was 90. The “Plant response rating, Nutsedge, Yellow” value in experiment [1] (setting [7]), in experiment [1] (setting [8]), in experiment [1] (setting [9]) and in experiment [1] (setting [10]) was 0 each time. Besides, the “Plant response rating, Crabgrass” value in experiment [2] (setting [7]) stood at 0; in experiment [2] (setting [8]), 20; in experiment [2] (setting [9]), 100; in experiment [2] (setting [10]) it was 100.
